Source: patent US20230193197A1, “TUNABLE PLANT-BASED MATERIALS VIA IN VITRO CELL CULTURE USING A ZINNIA ELEGANS MODEL” (FORAY Bioscience, Inc., priority 2021, published 2023)

Tested on: Z. elegans cells
Assay: Full factorial hormone concentration experiment in liquid culture (live fraction, lignification, enlargement, elongation metrics)
Format: cell-based, Zinnia elegans
Conditions: for cumulative levels of lignification / live fraction at day 12: NAA at 0.5 mg ml^-1 together with BAP at 1 mg ml^-1, compared across 16 hormone combinations
Experimental: In an embodiment, Z. elegans cells may be isolated by the maceration of young Zinnia leaves (e.g., leaves 114). Leaves collected from approximately 14 day-old Zinnia plants may be rinsed under running tap water for 5 min. Leaves may be sterilized in a solution of 5 ml commercial bleach (Clorox), 95 ml of deionized water, and […] of Tween 20 (Sigma Aldrich) for 5 min. Subsequently, leaves may be rinsed thoroughly with sterile distilled water, sliced into strips, and ground between the surfaces of a small sieve and a spoon (e.g., a stainless steel spoon). The leaf matter may be intermittently rinsed with ZE-M media and the rinsate may be collected in a bowl positioned beneath the supporting sieve. After completion of grinding, the rinsate may be collected and filtered through a […] cell strainer (e.g., manufactured by Fisher Scientific) to remove large debris. This strainer is just but an example and should not be considered limiting. The filtered solution may be centrifuged at 100 g for 8 min and resulting supernatant removed if more concentrated cell solutions are desired. Liquid cultures may be maintained at concentrations between 250,000 and 500,000 cells ml^−1 at 3 ml per well in a 6-well plate wrapped in parafilm. Cultures may be maintained at 22° C. in the dark on an orbital shaker operating at 80 rpm.
Cells may be cultured in this manner for 48 hours in the low-hormone media before transference to specialized experimental media. An incubation period may improve differentiation rates when cells may be later exposed to elevated levels of auxin and cytokinin. Auxins may be plant hormones produced in the stem tip that promote cell elongation. Cytokinins may be a class of plant hormones that promote cell division, or cytokinesis. For dispersed gel cultures, cells may be extracted and maintained in low-hormone, liquid medium for a 48 hour acclimation period, as previously described, prior to transference to a gel medium 108 solidified by the addition of Gelzan C M (e.g., manufactured by Sigma Aldrich) at a final concentration of 3 g L^−1. Cultures may be sealed off with parafilm and maintained at 22° C. in the dark.
For liquid cultures, well-mixed […] aliquots of cell suspension may be transferred to 48 well plates for imaging. A […] volume of a fluorescein diacetate (FDA) stock solution (prepared at 2 mg ml^−1 acetone) may be added to the cell suspension and incubated in the dark for 20 min. After the incubation period, […] of calcofluor white (CW) may be added and the solution rested for an additional 5 min prior to imaging. A Zeiss LSM780 confocal microscope, for example, may be set to excitation/emission wavelengths of […]/440 nm (DAPI filter) for CW and 490 nm/526 nm for FDA for imaging. Gel cultures may be stained through a similar dual-step process after wetting the gel surface with a small amount of liquid medium. Relative staining volumes may be the same, but increased incubation times may be involved (e.g., incubation times were approximately 45 min for FDA incubation, 45 min for CW incubation). Image analysis may be performed using Image-i. The thresholding tool may be used to select the relevant cell areas. To ensure robustness of the analyzed data ranges, the images corresponding to the highest and lowest values for a single sample may be analyzed a total of 3 times, with the repeated results averaged to yield a final value for the given image. […]

SMILES | elongation metric (BAP elevated, across most NAA concentrations) | cumulative levels of lignification | live fraction at day 12
c1ccc(CNc2ncnc3nc[nH]c23)cc1 [BAP, 6-benzylaminopurine] | reduced | highest | lowest
O=C(O)Cc1cccc2ccccc12 [NAA, a-naphthaleneacetic acid] |  | highest | lowest
